Measurements taken from PubChem BioAssay AID2060487 (Molecular Pharmacology Branch, DTP, NCI, 2025).

Tested on: 997537-175-T-J1-PDC complex spheroid viability
Assay: Anticancer human tumor 997537-175-T-J1-PDC patient-derived colon adenocarcinoma cell line growth inhibition [GQUAD]
Conditions: for IC50: curve of first compound; for viability, T/C: stronger effect = lower value
In short: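 Viability of tumor cells grown as complex spheroids with endothelial and stromal cells, exposed to drug combinations. Top concentration at or near clinical Cmax (else 10 microM), diluted in half-log increments.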

[1] = second compound 0.0316 µM, first compound 0.000999 µM
[2] = second compound 0.0316 µM, first compound 0.00316 µM
[3] = second compound 0.0316 µM, first compound 0.00999 µM
[4] = second compound 0.0316 µM, first compound 0.0316 µM
[5] = second compound 0.0316 µM, first compound 0.0999 µM
[6] = second compound 0.0316 µM, first compound 0.316 µM
[7] = second compound 0.1 µM, first compound 0.000999 µM
[8] = second compound 0.1 µM, first compound 0.00316 µM
[9] = second compound 0.1 µM, first compound 0.00999 µM
[10] = second compound 0.1 µM, first compound 0.0316 µM
[11] = second compound 0.1 µM, first compound 0.0999 µM
[12] = second compound 0.1 µM, first compound 0.316 µM
[13] = second compound 0.316 µM, first compound 0.000999 µM
[14] = second compound 0.316 µM, first compound 0.00316 µM
[15] = second compound 0.316 µM, first compound 0.00999 µM
[16] = second compound 0.316 µM, first compound 0.0316 µM
[17] = second compound 0.316 µM, first compound 0.0999 µM
[18] = second compound 0.316 µM, first compound 0.316 µM
[19] = second compound 1 µM, first compound 0.000999 µM
[20] = second compound 1 µM, first compound 0.00316 µM
[21] = second compound 1 µM, first compound 0.00999 µM
[22] = second compound 1 µM, first compound 0.0316 µM
[23] = second compound 1 µM, first compound 0.0999 µM
[24] = second compound 1 µM, first compound 0.316 µM
[25] = second compound 3.16 µM, first compound 0.000999 µM
[26] = second compound 3.16 µM, first compound 0.00316 µM
[27] = second compound 3.16 µM, first compound 0.00999 µM
[28] = second compound 3.16 µM, first compound 0.0316 µM
[29] = second compound 3.16 µM, first compound 0.0999 µM
[30] = second compound 3.16 µM, first compound 0.316 µM
[31] = second compound 10 µM, first compound 0.000999 µM
[32] = second compound 10 µM, first compound 0.00316 µM
[33] = second compound 10 µM, first compound 0.00999 µM
[34] = second compound 10 µM, first compound 0.0316 µM
[35] = second compound 10 µM, first compound 0.0999 µM
[36] = second compound 10 µM, first compound 0.316 µM
[37] = second compound 0.0316 µM, first compound 0.1 µM
[38] = second compound 0.0316 µM, first compound 1 µM
[39] = second compound 0.0316 µM, first compound 3.16 µM
[40] = second compound 0.0316 µM, first compound 10 µM
[41] = second compound 0.1 µM, first compound 0.1 µM
[42] = second compound 0.1 µM, first compound 1 µM
[43] = second compound 0.1 µM, first compound 3.16 µM
[44] = second compound 0.1 µM, first compound 10 µM
[45] = second compound 0.316 µM, first compound 0.1 µM
[46] = second compound 0.316 µM, first compound 1 µM
[47] = second compound 0.316 µM, first compound 3.16 µM
[48] = second compound 0.316 µM, first compound 10 µM
[49] = second compound 1 µM, first compound 0.1 µM
[50] = second compound 1 µM, first compound 1 µM
[51] = second compound 1 µM, first compound 3.16 µM
[52] = second compound 1 µM, first compound 10 µM
[53] = second compound 3.16 µM, first compound 0.1 µM
[54] = second compound 3.16 µM, first compound 1 µM
[55] = second compound 3.16 µM, first compound 3.16 µM
[56] = second compound 3.16 µM, first compound 10 µM
[57] = second compound 10 µM, first compound 0.1 µM
[58] = second compound 10 µM, first compound 1 µM
[59] = second compound 10 µM, first compound 3.16 µM
[60] = second compound 10 µM, first compound 10 µM
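Also: spheroids exposed to the agents for 7 days.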
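For viability, T/C in this document: 100% = DMSO vehicle control viability.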

SMILES: CCc1c2c(nc3ccc(O)cc13)-c1cc3c(c(=O)n1C2)COC(=O)[C@]3(O)CC + Cc1[nH]c2ccc(F)cc2c1-c1nc2c3cccnc3c3ncccc3c2[nH]1
- IC50 (second compound 0.0316 µM): 11.9 nM
- IC50 (second compound 0.1 µM): 9.18 nM
- IC50 (second compound 0.316 µM): 11.9 nM
- IC50 (second compound 1 µM): 8.52 nM
- IC50 (second compound 3.16 µM): 10.7 nM
- IC50 (second compound 10 µM): 6.48 nM
- viability, T/C [1]: 84.3%
- viability, T/C [2]: 94.4%
- viability, T/C [3]: 54.2%
- viability, T/C [4]: 16.6%
- viability, T/C [5]: 7.8%
- viability, T/C [6]: 2.95%
- viability, T/C [7]: 75%
- viability, T/C [8]: 74.8%
- viability, T/C [9]: 45.2%
- viability, T/C [10]: 22%
- viability, T/C [11]: 5.55%
- viability, T/C [12]: 2.19%
- viability, T/C [13]: 90.5%
- viability, T/C [14]: 94.3%
- viability, T/C [15]: 53.3%
- viability, T/C [16]: 19.2%
- viability, T/C [17]: 7.44%
- viability, T/C [18]: 2.71%
- viability, T/C [19]: 81.9%
- viability, T/C [20]: 76.6%
- viability, T/C [21]: 44.4%
- viability, T/C [22]: 19.6%
- viability, T/C [23]: 6.99%
- viability, T/C [24]: 7.31%
- viability, T/C [25]: 69%
- viability, T/C [26]: 56.6%
- viability, T/C [27]: 54%
- viability, T/C [28]: 22.1%
- viability, T/C [29]: 7.42%
- viability, T/C [30]: 2.8%
- viability, T/C [31]: 69.2%
- viability, T/C [32]: 52.8%
- viability, T/C [33]: 48%
- viability, T/C [34]: 17.1%
- viability, T/C [35]: 3.72%
- viability, T/C [36]: 2.19%

SMILES: COc1cc(C2c3cc4c(cc3C(OC3OC5COC(C)OC5C(O)C3O)C3COC(=O)C23)OCO4)cc(OC)c1O (stereo not drawn) + Cc1[nH]c2ccc(F)cc2c1-c1nc2c3cccnc3c3ncccc3c2[nH]1
- IC50 (second compound 0.0316 µM): > 10000 nM
- IC50 (second compound 0.1 µM): > 10000 nM
- IC50 (second compound 0.316 µM): > 10000 nM
- IC50 (second compound 1 µM): > 10000 nM
- IC50 (second compound 3.16 µM): > 10000 nM
- IC50 (second compound 10 µM): > 10000 nM
- viability, T/C [4]: 105%
- viability, T/C [37]: 90%
- viability, T/C [6]: 102%
- viability, T/C [38]: 64.1%
- viability, T/C [39]: 109%
- viability, T/C [40]: 53.6%
- viability, T/C [10]: 99%
- viability, T/C [41]: 75.9%
- viability, T/C [12]: 89%
- viability, T/C [42]: 88.3%
- viability, T/C [43]: 90.8%
- viability, T/C [44]: 75.3%
- viability, T/C [16]: 96.4%
- viability, T/C [45]: 64.1%
- viability, T/C [18]: 91.1%
- viability, T/C [46]: 84.5%
- viability, T/C [47]: 91%
- viability, T/C [48]: 76.8%
- viability, T/C [22]: 89.8%
- viability, T/C [49]: 77.2%
- viability, T/C [24]: 88.5%
- viability, T/C [50]: 84.8%
- viability, T/C [51]: 67.7%
- viability, T/C [52]: 53.1%
- viability, T/C [28]: 88.5%
- viability, T/C [53]: 71%
- viability, T/C [30]: 85.8%
- viability, T/C [54]: 75.7%
- viability, T/C [55]: 98.6%
- viability, T/C [56]: 72.4%
- viability, T/C [34]: 84.8%
- viability, T/C [57]: 92.7%
- viability, T/C [36]: 78.6%
- viability, T/C [58]: 81%
- viability, T/C [59]: 86%
- viability, T/C [60]: 65.2%

SMILES: Cn1ncnc1[C@H]1c2n[nH]c(=O)c3cc(F)cc(c23)N[C@@H]1c1ccc(F)cc1 + Cc1[nH]c2ccc(F)cc2c1-c1nc2c3cccnc3c3ncccc3c2[nH]1
- IC50 (second compound 0.0316 µM): > 316 nM
- IC50 (second compound 0.1 µM): > 316 nM
- IC50 (second compound 0.316 µM): > 316 nM
- IC50 (second compound 1 µM): > 316 nM
- IC50 (second compound 3.16 µM): > 316 nM
- IC50 (second compound 10 µM): > 316 nM
- viability, T/C [1]: 101%
- viability, T/C [2]: 99.5%
- viability, T/C [3]: 104%
- viability, T/C [4]: 71%
- viability, T/C [5]: 82.5%
- viability, T/C [6]: 83.1%
- viability, T/C [7]: 103%
- viability, T/C [8]: 102%
- viability, T/C [9]: 84.4%
- viability, T/C [10]: 65.1%
- viability, T/C [11]: 106%
- viability, T/C [12]: 96.2%
- viability, T/C [13]: 102%
- viability, T/C [14]: 103%
- viability, T/C [15]: 87.1%
- viability, T/C [16]: 75.8%
- viability, T/C [17]: 99.7%
- viability, T/C [18]: 93.1%
- viability, T/C [19]: 83.7%
- viability, T/C [20]: 74.6%
- viability, T/C [21]: 91.2%
- viability, T/C [22]: 81.3%
- viability, T/C [23]: 96.5%
- viability, T/C [24]: 87.8%
- viability, T/C [25]: 84.7%
- viability, T/C [26]: 73.2%
- viability, T/C [27]: 73.3%
- viability, T/C [28]: 70.6%
- viability, T/C [29]: 101%
- viability, T/C [30]: 84.2%
- viability, T/C [31]: 78%
- viability, T/C [32]: 61.3%
- viability, T/C [33]: 89.8%
- viability, T/C [34]: 62.9%
- viability, T/C [35]: 92.5%
- viability, T/C [36]: 95.3%

SMILES: O=C(c1cc(Cc2n[nH]c(=O)c3ccccc23)ccc1F)N1CCN(C(=O)C2CC2)CC1 + Cc1[nH]c2ccc(F)cc2c1-c1nc2c3cccnc3c3ncccc3c2[nH]1
- IC50 (second compound 0.0316 µM): > 10000 nM
- IC50 (second compound 0.1 µM): > 10000 nM
- IC50 (second compound 0.316 µM): > 10000 nM
- IC50 (second compound 1 µM): > 10000 nM
- IC50 (second compound 3.16 µM): > 10000 nM
- IC50 (second compound 10 µM): > 10000 nM
- viability, T/C [4]: 99.8%
- viability, T/C [37]: 96.1%
- viability, T/C [6]: 93.2%
- viability, T/C [38]: 81.6%
- viability, T/C [39]: 79%
- viability, T/C [40]: 102%
- viability, T/C [10]: 91.8%
- viability, T/C [41]: 95.7%
- viability, T/C [12]: 77.1%
- viability, T/C [42]: 67.8%
- viability, T/C [43]: 89.5%
- viability, T/C [44]: 94.1%
- viability, T/C [16]: 76.1%
- viability, T/C [45]: 103%
- viability, T/C [18]: 90%
- viability, T/C [46]: 88.5%
- viability, T/C [47]: 98.4%
- viability, T/C [48]: 94.6%
- viability, T/C [22]: 76.9%
- viability, T/C [49]: 96.7%
- viability, T/C [24]: 73.6%
- viability, T/C [50]: 101%
- viability, T/C [51]: 106%
- viability, T/C [52]: 109%
- viability, T/C [28]: 90.7%
- viability, T/C [53]: 89.9%
- viability, T/C [30]: 100%
- viability, T/C [54]: 81.4%
- viability, T/C [55]: 94.4%
- viability, T/C [56]: 94.4%
- viability, T/C [34]: 71.9%
- viability, T/C [57]: 84.1%
- viability, T/C [36]: 96.7%
- viability, T/C [58]: 60.5%
- viability, T/C [59]: 79.8%
- viability, T/C [60]: 83.6%
